The values that follow come from patent US10238679B2, “Antitumor activity of multi-kinase inhibitors in colorectal cancer” (ENTRECHEM, S.L, priority 2014, dated 2019).

One may read the IC50 as the midpoint of a concentration-inhibition curve. Low values mean higher potency, high ones lower potency.

Structures are written as SMILES.

Data set [1] has as its system SW620 cells. Put plainly: MTT metabolization, SW620 cell proliferation. In kind it is cell-based. As for the experimental part: (§1) SW620, HT29 and SW48 were grown in DMEM; this medium was purchased from Sigma Aldrich, supplemented with 10% FBS, 100 mU/mL penicillin, 100 μg/mL streptomycin and 2 mM L-glutamine, in a 5% CO2 atmosphere at 37° C. These colorectal cancer cell lines were obtained from the American Type Culture Collection Cell Biology Collection (ATCC) (Manassas, Va.). The medium was changed every 2 days.
(§2) Cell proliferation and growth experiments were carried out using 3-(4,5-dimethylthiazol-2-yl)-2,5-diphenyltetrazolium bromide (MTT) uptake assays, where MTT is reduced to purple formazan by the mitochondria of living cells. Increase in cell number is detected by augmented MTT metabolization, and decrease in cell number is reflected by a decrease. SW620, HT29 and SW48 cells were plated at a density of 1×10^4 cells per well in 24-well plates and cultured overnight in DMEM supplemented with 10% FBS. The cells were treated with the drug at different concentrations to plot the dose—response curves in all cancer cell lines using in the study. […] After treatment, each well was replaced with 250 μL of fresh medium containing MTT ([…]) and incubated for 1 hour. The medium was then removed and 500 μL of dimethyl sulfoxide was added to each well. The plate was agitated in the dark for 5 minutes to dissolve the MTT-formazan crystals. The absorbance of the samples was recorded at 562 nm in a multi-well plate reader (BMG labtech). Results were plotted as the mean values of quadruplicates from a representative experiment that was repeated at least two independent times.
(§3) Combination index values less than 1 indicate synergism, values equal to 1 indicate an additive effect, whereas values greater than 1 indicate antagonism. Combination index values from three independent experiments were generated.

The test system of data set [2] is HT29 cells. Put plainly: MTT metabolization, HT29 cell proliferation. It is filed as cell-based. On the procedure:
as §1, §2, §3

Data set [3] has as its system SW620, HT29 and SW48 cells. Put plainly: MTT metabolization, colorectal cancer cell lines (IC50 dose, line not specified). It is filed as cell-based. Conditions: dose used for time-response curve. As for the experimental part: as §2
Data set [4] deals with SW620 cells. Put plainly: Cell cycle analysis by flow cytometry (propidium iodide), SW620. It is filed as cell-based. The conditions noted are these: 500 nM, 24 h. As for the experimental part:
(§4) Cell cycle analyses and evaluation of apoptosis were performed by flow cytometry using propidium iodide and Annexin V, respectively.
(§5) For cell cycle analyses, SW620 and HT29 cells were cultured in 100-mm culture dishes, grown to 70% confluence, and treated with 500 nM Formula (III) for 24 h. Cell monolayers were then incubated in trypsin—EDTA and resuspended in 1 mL of PBS. After three washes with PBS, the cell pellets were resuspended in ice cold 70% ethanol for 2 min and centrifuged 5 min at 1800 rpm. The cell pellets were treated with 1 mL of propidium iodide (PI) staining solution (PBS containing 50 μg/mL of PI, 0.5% Tween 20, 0.1 μg/mL RNase A) (BD Biosciencies) and incubated in the dark for 1 h. DNA content and cell cycle analyses were performed by using a FACS canto II flow cytometer and the CellQuest software (BD Biosciences).
On the technique in general: In flow cytometry, cells or beads pass a laser one at a time.

Data set [5] relates to HT29 cells. Put plainly: Cell cycle analysis by flow cytometry (propidium iodide), HT29. In kind it is cell-based. Conditions: 500 nM, 24 h. On the procedure:
as §4, §5

Data set [6] concerns SW620 cells. Put plainly: Apoptosis by Annexin V flow cytometry, SW620. It is filed as cell-based. The conditions noted are these: 48 hours. On the procedure:
as §4
(§6) For apoptosis analyses, SW620 and HT29 cell monolayers were incubated in trypsin—EDTA, washed twice with cold PBS, and then resuspended in binding buffer (10 mM HEPES free acid [pH 7.4], 140 mM NaCl, 2.5 mM CaCl2) at a concentration of 1×10^6 cells per mL. A total of 1×10^5 cells were incubated for 15 minutes in the dark with Annexin V-APC (BD Biosciences) and propidium iodide (PI) staining solution (5 μL Annexin […], 10 μL of PI [[…] final concentration], 400 μL binding buffer).

In data set [7] the test system is HT29 cells. Put plainly: Apoptosis by Annexin V flow cytometry, HT29. It is filed as cell-based. The conditions noted are these: 48 hours. On the procedure: as §4, §6
Data set [8] has as its system phosphorylated γH2AX in SW620 cells. Put plainly: Western blot of DNA damage marker phosphorylated γH2AX, SW620. It is filed as cell-based. The conditions noted are these: 500 nM, time dependent up to 24 h. On the procedure:
(§7) Western-blot and phospho-array kits were used for evaluation of signaling intermediates. SW620 and HT29 cell lines were grown in DMEM 10% of FBS and at 70% confluence were treated with Formula (III) at 500 nM for 6, 12 and 24 hours. Cells were washed with phosphate-buffered saline (PBS) (137 mM NaCl, 2.7 mM KCl, 8 mM Na2HPO4, 1.5 mM KH2PO4) and lysed in ice-cold lysis buffer (20 mM Tris-HCl [pH 7.0], 140 mM NaCl, 50 mM EDTA, 10% glycerol, 1% Nonidet P-40, 1 μM pepstatin, 1 μg/mL aprotinin, 1 μg/mL leupeptin, 1 mM phenylmethyl sulfonyl fluoride, 1 mM sodium orthovanadate). Lysates were centrifuged at 10000 g at 4° C. for 10 minutes. The protein level in the supernatants was quantified using BCA protein assay (Sigma Aldrich). A total of 50 μg of protein of each sample was used for analysis. Samples were then boiled in electrophoresis sample buffer and placed on 6%-15% sodium dodecyl sulfate-polyacrylamide gel electrophoresis (SDS-PAGE) gels, depending on the molecular weight of the proteins to be analyzed. Briefly, after electrophoresis, proteins in gels were transferred to polyvinylidene difluoride membranes (Millipore Corporation). Membranes were blocked in Tris-buffered saline with Tween (TBST) (100 mM Tris [pH 7.5], 150 mM NaCl, 0.05% Tween 20) containing 1% of bovine serum albumin for 1 h and then incubated overnight with the corresponding antibody. […]
For orientation: Immunoblotting shows a protein as a band on a membrane.

For data set [9], the system named is phosphorylated γH2AX in HT29 cells. Put plainly: Western blot of DNA damage marker phosphorylated γH2AX, HT29. It is filed as cell-based. The conditions noted are these: 500 nM, time dependent up to 24 h. On the procedure: as §7
Data set [10] deals with pS6, AKT, Src and Lck in SW620 cells. Put plainly: Phospho-kinase dot blot array and Western blot, SW620. Conditions: 500 nM, at 6 hours or 12 hours. In kind it is cell-based. On the procedure: as §7
For data set [11], the system named is pS6 and Src in HT29 cells. Put plainly: Phospho-kinase dot blot array and Western blot, HT29. In kind it is cell-based. The conditions noted are these: 500 nM, at 6 hours. As for the experimental part: as §7
Data set [12] relates to a range of tyrosine and serine/threonine kinases. Conditions: biochemical assays; background statement; cited from earlier work.
The conditions of data set [13]: animal models; background statement; cited from earlier work.
Where [14] appears, read: doses in the submicromolar (nanomolar) range.

Turning to `C[C@]12O[C@H](C[C@H](O)[C@H]1O)n1c3ccccc3c3c4c(c5c6ccccc6n2c5c31)C(=O)NC4=O` [Formula (III)], the “half-maximal inhibitory effect (MTT metabolization)” value in [1] and in data set [2] was “nanomolar range” in each case. In addition, the growth inhibition entry in data set [1] (setting [14]) and in data set [2] (setting [14]) was “more than 80%” in each case. The “effect on proliferation compared with other inhibitors” value in data set [1] (vs lapatinib, sunitinib, crizotinib, BEZ235, NVP-BSK805, dasatinib, 0 to 2 μM, 72 h) was “strong effect”; in [2] (vs lapatinib, sunitinib, crizotinib, BEZ235, NVP-BSK805, dasatinib), “strong effect”. Further, in data set [3], the IC50 is 500 nM. Also, the “effect on cell cycle” value in data set [4] and in [5] was “strong arrest in G2/M phase” each time. Moreover, the “apoptosis (Annexin staining)” value in data set [6] and in [7] was “induction of apoptosis” throughout. The “phosphorylated levels of γH2AX (DNA damage)” value in data set [8] and in data set [9] was “increase in the phosphorylated levels of γH2AX” throughout. Moreover, the “phosphorylation/activation status of kinases pS6, AKT, Src and Lck” value in [10] was “strongly inhibited”. In addition, in data set [11], the “phosphorylation/activation status of pS6 and Src” value is on record as “inhibited”. The “affinity towards and inhibition of kinase activity” value in [12] was “nanomolar and subnanomolar range”. Also, in data set [13], the “anti-tumoral activity in vivo” value is recorded as “anti-tumoral activity”. Also, the toxicities in vivo entry in data set [13] was “no evidence of toxicities”.
